Patent publication US10017741B2, “Compositions and methods for obtaining enriched mesenchymal stem cell cultures” (StemCell Technologies Inc., priority 2013, dated 2018)
“Also recorded” adds a separate entry of the source.

Columns and labels:
human BM-derived MSCs = experiment: Adipogenic and osteogenic differentiation of human BM-derived MSCs; format: cell-based; details: human BM-MSC expanded to P2 in 1 μM, 3 weeks differentiation, Oil red O / silver nitrate
Procedure: (§1) c. Expansion of Human BM and Mouse BM and CB-Derived Cells Assay • 1. […] Cultures were allowed to grow for 10-14 days until adherent cells achieved 70 to 80% confluence. Mouse cultures were maintained under normal (5% CO2) or hypoxic conditions (5% CO2/5% O2) at 37 C in a cell culture incubator. Human cultures were maintained under 5% CO2 at 37 C in a humidified cell culture incubator. • 3. Adherent cells were passaged by releasing cultures from flask. Cultures were washed with 5 mL PBS and then 5 mL of 0.25% trypsin solution ([…] catalogue #07901) was added and the flasks incubated for 10 min at 37 C. To each flask, 5 mL complete medium was added to stop trypsin activity. • 4. Released cells were collected into a tube and centrifuged at 300×g for 5 minutes. • 5. Cells were resuspended in 2 mL of medium and counted using a hemocytometer. • 6. […] P1 cultures were incubated until they reached 70 to 80% confluence. • 8. Passaged cultures can be used at any time from P0 to P10 as needed for different applications.
BM-derived cultures were isolated as described above and expansion assays setup as described above. […] At the end of P2, cell were dissociated by trypsin digestion and replated at 3×10^4 cells/cm^2 in 12-well plates for differentiation assays. Differentiation cultures were maintained for 3 weeks in adipogenic or osteogenic differentiation media. […]

[1] = tested on: BM-MSCs (CD45−/CD29+/Sca1+); experiment: Total cell count with flow cytometry, BM-MSC cultures; format: cell-based, mouse
Procedure: (§2) d. Flow Cytometry Analysis • 1. Cultures of BM and CB-derived cells were trypsinized for 10 minutes and an equal volume of complete medium was added to cultures to stop trypsin activity • 2. Cell suspension was filtered through a 40 μm strainer, and cells counted using a hemocytometer • 3. Suspension was spun down at 300×g for 5 minutes. • 4. Supernatant was removed and cell pellet resuspended in FACS buffer (PBS with 2% FBS and 1 mM EDTA) • 5. A total of 1×10^5 cells in 300 μL FACS buffer was used for each flow cytometry analysis tube, including unstained, viability, compensation, and isotype controls. • 6. Cell suspensions were stained with fluorophore-labeled antibodies against CD45, CD11b, and Sca1, CD29, and viability dye. • 7. Cell suspensions were analyzed on a flow cytometer using compensation and isotype control to determine laser voltage and gating. • 8. Samples were gated on viable CD45^+ cells and 10,000 events per sample were collected. Alternatively, cells were gated on viable CD45^− cells and out of this gate the proportion of CD29+/Sca1^+ cells obtained.
(§3) Prior to flow cytometry, control and GW2580-treated cultures of BM- and CB-MSC were dissociated from tissue culture flasks by trypsinization and the total number of cells counted with the aid of a hemocytometer. Flow cytometry analysis was performed and the ratio of CD45^− cells and CD45^−/CD29^+/Sca1^+ cells applied to the total number of cells to obtain the actual number of these cells in culture (Table 2).

[2] = tested on: mouse BM-derived cells (MSC colonies); experiment: Mouse BM-derived CFU-F assay; format: cell-based; details: 14 days
Procedure: a. Mouse BM and CB-Derived CFU-F Assay • 1. […] Medium was removed cultures washed with 2 mL PBS. • 4. Cells were fixed by adding 2 mL methanol/well and incubated at room temperature for 5 minutes. • 5. Methanol was removed and plates allowed to air dry for 5 minutes. • 6. To each well, 2 mL Toluidine blue solution was added and incubated for 30 minutes at room temperature. • 7. Toluidine blue solution was removed and wells rinsed with water. • 8. Water was removed and plates allowed to dry. • 9. Colony formation was assessed by enumeration and colony size. Mouse BM-derived cells were isolated as described previously and CFU-F assays setup as described above. […] Cultures were then stained with Toluidine blue and colony formation and appearance assessed. Three independent assays CFU-F assays for both BM- and CB-MSC were setup as in Example 4a and 4b. […] These assays were maintained for 14 days without media change. At the end of day 14, cultures were fixed and stained with toluidine blue and the number of MSC colonies counted.

26 other kinases = details: cited from earlier work
[3] = tested on: CSF-1-independent cell line, human fibroblasts, and other endothelial cells; details: cited from earlier work
[4] = tested on: CB-derived cultures (macrophage contamination, MSC morphology); experiment: Images of CB-derived expansion cultures; format: cell-based, mouse; details: for macrophage contamination and MSC enrichment (images): CB
Procedure: as §1

[5] = tested on: CB-MSCs (CD45−/CD29+/Sca1+); experiment: Total cell count with flow cytometry, CB-MSC cultures; format: cell-based, mouse
Procedure: as §2, §3

[6] = BM-MSCs, 2.5 uM GW2580, 14 days during P0
[7] = BM-MSC, assay 1, 1 uM GW2580, 1.0 × 10^6 cells plated
[8] = BM-MSC, assay 1, 1 uM GW2580, 2.5 × 10^5 cells plated
[9] = BM-MSC, assay 1, 1 uM GW2580, 5.0 × 10^5 cells plated
[10] = BM-MSC, assay 1, 1 uM GW2580, Sum of the three densities
[11] = BM-MSC, assay 2, 2.5 uM GW2580, 1.0 × 10^6 cells plated
[12] = BM-MSC, assay 2, 2.5 uM GW2580, 2.5 × 10^5 cells plated
[13] = BM-MSC, assay 2, 2.5 uM GW2580, 5.0 × 10^5 cells plated
[14] = BM-MSC, assay 2, 2.5 uM GW2580, Sum of the three densities
[15] = BM-MSC, assay 3, 2.5 uM GW2580, 1.0 × 10^6 cells plated
[16] = BM-MSC, assay 3, 2.5 uM GW2580, 2.5 × 10^5 cells plated
[17] = BM-MSC, assay 3, 2.5 uM GW2580, 5.0 × 10^5 cells plated
[18] = BM-MSC, assay 3, 2.5 uM GW2580, Sum of the three densities
[19] = CB-MSCs, 2.5 uM GW2580, 14 days during P0

COc1ccc(COc2ccc(Cc3cnc(N)nc3N)cc2OC)cc1 [GW2580, 5-(3-Methoxy-4-((4-methoxybenzyl)oxy)benzyl)pyrimidine-2,4-diamine]
adipogenic and osteogenic differentiation vs control-expanded cultures (human BM-derived MSCs): differentiated equally well | actual increase in BM-MSCs (CD45−/CD29+/Sca1+) vs control ([1]; BM-MSC, 2.5 uM GW2580): 0.25 fold | increase in number of CD45−/CD29+/Sca1+ MSCs vs control ([1]; BM-MSC, 2.5 uM GW2580): 26% | Actual number of cells, CD45− [1, 6]: 665,331 | Actual number of cells, CD45−/CD29+/Scal+ [1, 6]: 639,450 | CD45−, Percent (Flow Cytometry) [1, 6]: 70.48% | total cells [1, 6]: 9.44E+05 | CD45−/CD29+/Scal+, Percent (Flow Cytometry) ([1]; BM-MSCs, 2.5 uM GW2580, 14 days during P0, out of CD45− gate): 96.11% | overall minimal increase in number of MSC colonies vs control ([2]; BM-MSC, 1 or 2.5 uM, three assays): ≥ 20% | % increase in number of MSC colonies vs control [2, 7]: 26% | Number of MSC colonies [2, 7]: 227 | % increase in number of MSC colonies vs control [2, 8]: 26% | Number of MSC colonies [2, 8]: 103 | % increase in number of MSC colonies vs control [2, 9]: 44% | Number of MSC colonies [2, 9]: 201 | % increase in number of MSC colonies vs control [2, 10]: 32% | Number of MSC colonies [2, 10]: 531 | % increase in number of MSC colonies vs control [2, 11]: 21% | Number of MSC colonies [2, 11]: 34 | % increase in number of MSC colonies vs control [2, 12]: 0% | Number of MSC colonies [2, 12]: 3 | % increase in number of MSC colonies vs control [2, 13]: 109% | Number of MSC colonies [2, 13]: 23 | % increase in number of MSC colonies vs control [2, 14]: 40% | Number of MSC colonies [2, 14]: 60 | % increase in number of MSC colonies vs control [2, 15]: 50% | Number of MSC colonies [2, 15]: 60 | % increase in number of MSC colonies vs control [2, 16]: 67% | Number of MSC colonies [2, 16]: 5 | % increase in number of MSC colonies vs control [2, 17]: 70% | Number of MSC colonies [2, 17]: 17 | % increase in number of MSC colonies vs control [2, 18]: 55% | Number of MSC colonies [2, 18]: 82 | increase in colony number compared to control cultures ([2]; BM-derived, 1 μM): at least 20% | MSC CFU-F appearance (colony size, macrophages) ([2]; BM-derived, 1 μM, Toluidine blue): bigger in size and have a much reduced number of macrophages; also recorded: larger, enriched MSC CFU-F that are mostly free of macrophages | activity against 26 other kinases tested (26 other kinases): inactive | sensitivity of CSF-1-independent cell line, human fibroblasts and other endothelial cells to GW2580 [3]: highly resistant | macrophage contamination and MSC enrichment (images) ([4]; 1 μM continuous P0-P3): have reduced numbers of macrophages; also recorded: contain a much reduced number of these contaminating macrophages | macrophage contamination and MSC enrichment (images) ([4]; 1 μM, P2): a much reduced number of macrophages is observed; also recorded: enriched and mostly devoid of macrophage contamination | macrophage contamination and MSC appearance (images) ([4]; CB, 1, 5 and 10 μM): have reduced numbers of contaminating macrophages; also recorded: a noticeable decrease in macrophages was noticed | increase in number of CD45−/CD29+/Sca1+ MSCs vs control ([5]; CB-MSC, 2.5 uM GW2580): 310% | Actual number of cells, CD45− [5, 19]: 530,702 | Actual number of cells, CD45−/CD29+/Scal+ [5, 19]: 507,616 | CD45−, Percent (Flow Cytometry) [5, 19]: 95.45% | total cells [5, 19]: 5.56E+05 | CD45−/CD29+/Scal+, Percent (Flow Cytometry) ([5]; CB-MSCs, 2.5 uM GW2580, 14 days during P0, out of CD45− gate): 95.65%
